# Results as given in US20200016200A1, “MODULATING CYTOTOXIC CELL LYTIC GRANULE POSITIONING TO PROMOTE DIFFUSE KILLING IN CELLULAR THERAPIES” (Baylor College of Medicine, priority 2016, published 2020).
# System: eNK cells
# Test: Live cell confocal microscopy (UGATm) of antibody-dependent cellular cytotoxicity
# Format: cell-based, human
# Conditions: eNK aggregated with uncoated and RTX-coated Raji cells, no LFA-1 blockade
# Description: FIGS. 9A-9D. LFA-1 blockade increases bystander killing. Live cell confocal microscopy of antibody-dependent cellular cytotoxicity by eNK cells pre-treated with murine IgG1 mAb control (9A) or LFA-1 blocking mAb (clone TS1/22, 9B). Green, RTX-coated Raji cells (NK-inciting targets); yellow, uncoated Raji cells (bystanders); red, LysoTracker Red (lytic granules); blue, SYTOX Blue viability dye. NK cells were mixed with the target cells immediately before the imaging process and imaged every 4 min for 4 hours. […] Data represent combined results from three healthy donors. Standard 4-hour 51Cr cytotoxicity assay of NK cells treated with LFA-1-blocking mAb or murine IgG control (9D). Each dot represents an individual healthy donor.
# To apply this concept in the context of physiologic antibody-dependent cell mediated cytotoxicity (ADCC) a human therapeutic monoclonal antibody, Rituximab (RTX) was used along with NK cell resistant Raji cells that naturally express the antigen recognized by RTX. […]
# YTS-CD16 and eNK cells were incubated with 5 μM LysoTracker Red DND-99 (Thermo Fisher) for 30 min at 37° C. and washed. […] Emission was detected with HyD detectors, and images were collected in a single z-plane at one frame every 4 or 30 min for 120 min. […]
substance,measurement,value
"Rituximab: human therapeutic monoclonal antibody against CD20, used to coat Raji cells for ADCC",killing of RTX-coated versus uncoated Raji cells,preferential killing of the RTX-coated Raji cells
